Source: ChEMBL document CHEMBL5233217, “Modification of 7-piperazinylquinolone antibacterials to promising anticancer lead compounds: Synthesis and in vitro studies” (Eur J Med Chem, 2020)

Experiments:
[1] = tested on: SW480; test: Anticancer activity against human SW480 cells assessed as reduction in cell viability incubated for 72 hrs by MTT assay; assay type: functional, cell-based; details: SW480, 72 h
[2] = Cytotoxicity against Chinese hamster CHO cells assessed as reduction in cell viability by MTT assay; assay type: toxicity, cell-based, Cricetulus griseus
[3] = tested on: A549; test: Antitumor activity against human A549 cells assessed as reduction in cell viability incubated for 4 hrs by MTT assay; assay type: functional, cell-based; details: A549, 4 h
[4] = tested on: KB; test: Anticancer activity against human KB cells assessed as reduction in cell viability incubated for 72 hrs by MTT assay; assay type: functional, cell-based
[5] = tested on: MCF7; test: Anticancer activity against human MCF7 cells assessed as reduction in cell viability incubated for 72 hrs by MTT assay; assay type: functional, cell-based; details: MCF7, 72 h
[6] = tested on: A-431; test: Anticancer activity against human A-431 cells assessed as reduction in cell viability incubated for 72 hrs by MTT assay; assay type: functional, cell-based; details: A-431, 72 h
[7] = tested on: L1210; test: Cytotoxicity against mouse L1210 cells assessed as reduction in cell viability by MTT assay; assay type: functional, cell-based
[8] = tested on: EJ; test: Anticancer activity against human EJ cells assessed as reduction in cell viability incubated for 72 hrs by MTT assay; assay type: functional, cell-based
[9] = tested on: L1210; test: Antiproliferative activity against mouse L1210 cells assessed as reduction in cell viability by MTT assay; assay type: functional, cell-based
[10] = tested on: CT26; test: Antitumor activity against mouse CT26 cells assessed as reduction in cell viability incubated for 4 hrs by MTT assay; assay type: functional, cell-based; details: CT26, 4 h
[11] = tested on: HL-60; test: Cytotoxicity against human HL-60 cells assessed as reduction in cell viability by MTT assay; assay type: functional, cell-based
[12] = tested on: SK-MEL3; test: Anticancer activity against human SK-MEL3 cells assessed as reduction in cell viability incubated for 72 hrs by MTT assay; assay type: functional, cell-based; details: SK-MEL3, 72 h
[13] = tested on: SMMC-7721; test: Antiproliferative activity against human SMMC-7721 cells assessed as reduction in cell viability; assay type: functional, cell-based
[14] = tested on: L1210; test: Antiproliferative activity against mouse L1210 cells assessed as reduction in cell viability; assay type: functional, cell-based
[15] = tested on: Hep 3B2; test: Antiproliferative activity against human Hep3B cells assessed as reduction in cell viability; assay type: functional, cell-based
[16] = tested on: CAPAN-1; test: Antiproliferative activity against human CAPAN-1 cells assessed as reduction in cell viability; assay type: functional, cell-based
[17] = tested on: HL-60; test: Antiproliferative activity against human HL-60 cells assessed as reduction in cell viability; assay type: functional, cell-based
[18] = Cytotoxicity against mouse BMSC cells assessed as reduction in cell viability incubated for 48 hrs by MTT assay; assay type: toxicity, cell-based
[19] = tested on: SMMC-7721; test: Antiproliferative activity against human SMMC-7721 cells assessed as reduction in cell viability incubated for 48 hrs by MTT assay; assay type: functional, cell-based; details: SMMC-7721, 48 h
[20] = tested on: HCT-8; test: Antiproliferative activity against human HCT-8 cells assessed as reduction in cell viability incubated for 48 hrs by MTT assay; assay type: functional, cell-based; details: HCT-8, 48 h
[21] = tested on: MCF7; test: Antiproliferative activity against human MCF7 cells assessed as reduction in cell viability incubated for 48 hrs by MTT assay; assay type: functional, cell-based; details: MCF7, 48 h
[22] = tested on: Hep 3B2; test: Antiproliferative activity against human Hep3B cells assessed as reduction in cell viability incubated for 48 hrs by MTT assay; assay type: functional, cell-based
[23] = tested on: SiHa; test: Antiproliferative activity against human SiHa cells assessed as cell growth inhibition incubated for 48 hrs by sulforhodamine B assay; assay type: functional
[24] = tested on: PANC-1; test: Antiproliferative activity against human PANC-1 cells assessed as cell growth inhibition incubated for 48 hrs by sulforhodamine B assay; assay type: functional
[25] = Cytotoxicity against Chinese hamster CHO cells assessed as reduction in cell viability incubated for 48 hrs by MTT assay; assay type: toxicity, cell-based, Cricetulus griseus
[26] = tested on: HL-60; test: Cytotoxicity against human HL-60 cells assessed as reduction in cell viability incubated for 48 hrs by MTT assay; assay type: functional, cell-based; details: HL-60, 48 h
[27] = tested on: L1210; test: Cytotoxicity against mouse L1210 cells assessed as reduction in cell viability incubated for 48 hrs by MTT assay; assay type: functional, cell-based; details: L1210, 48 h
[28] = tested on: SMMC-7721; test: Antiproliferative activity against human SMMC-7721 cells assessed as reduction in cell viability incubated for 24 hrs by MTT assay; assay type: functional, cell-based; details: SMMC-7721, 24 h
[29] = tested on: SK-MEL-2; test: Anticancer activity against human SK-MEL-2 cells assessed as cell growth inhibition by sulforhodamine B assay; assay type: functional
[30] = tested on: SK-MEL-5; test: Anticancer activity against human SK-MEL-5 cells assessed as cell growth inhibition by sulforhodamine B assay; assay type: functional
[31] = tested on: LOX IMVI; test: Anticancer activity against human LOX IMVI cells assessed as cell growth inhibition by sulforhodamine B assay; assay type: functional
[32] = tested on: UACC-257; test: Anticancer activity against human UACC-257 cells assessed as cell growth inhibition by sulforhodamine B assay; assay type: functional
[33] = tested on: HOP-92; test: Anticancer activity against human HOP-92 cells assessed as cell growth inhibition by sulforhodamine B assay; assay type: functional
[34] = tested on: HL-60; test: Antitumor activity against human HL-60 cells assessed as reduction in cell viability by MTT assay; assay type: functional, cell-based
[35] = tested on: Hep 3B2; test: Antitumor activity against human Hep3B cells assessed as reduction in cell viability by MTT assay; assay type: functional, cell-based
[36] = tested on: SMMC-7721; test: Antitumor activity against human SMMC-7721 cells assessed as reduction in cell viability by MTT assay; assay type: functional, cell-based
[37] = tested on: CAPAN-1; test: Antitumor activity against human CAPAN-1 cells assessed as reduction in cell viability by MTT assay; assay type: functional, cell-based
[38] = tested on: L1210; test: Antitumor activity against mouse L1210 cells assessed as reduction in cell viability by MTT assay; assay type: functional, cell-based
[39] = tested on: L1210; test: Anticancer activity against mouse L1210 cells assessed as reduction in cell viability by MTT assay; assay type: functional, cell-based

What does the source list for `O=C(O)c1cn(C2CC2)c2cc(N3CCNCC3)c(F)cc2c1=O` [CIPROFLOXACIN]?
IC50 [1]: > 128 µM; IC50 [2]: > 150 µM; IC50 [3]: 330 µM; IC50 [4]: > 128 µM; IC50 [5]: > 128 µM; IC50 [6]: > 128 µM; IC50 [7]: > 150 µM; IC50 [8]: > 128 µM; IC50 [9]: > 150 µM; IC50 [10]: 330 µM; IC50 [11]: > 150 µM; IC50 [12]: > 128 µM

With `CCn1cc(-c2nnc(SCc3nnc(-c4ccccc4OC)o3)[nH]2)c(=O)c2cc(F)c(N3CCN(C)CC3)cc21` as the compound, how does the IC50 [13] read?
The IC50 was 3.8 µM.

What about the IC50 [14] of the same compound?
Its IC50 is 3.8 µM.

And the IC50 [15]?
Its IC50 is 3.8 µM.

And the IC50 [16]?
The IC50 was 3.8 µM.

And the IC50 [17]?
The IC50 was 3.8 µM.

For `CCn1cc(-c2nc(SCc3nnc(-c4ccc(F)cc4)o3)n(CN(C)C)n2)c(=O)c2cc(F)c(N3CCN(C)CC3)cc21`, which IC50 [13] is on record?
The IC50 was 1.5 µM.

What about the IC50 [14] of the same compound?
Its IC50 is 1.5 µM.

And the IC50 [15]?
Its IC50 is 1.5 µM.

And the IC50 [16]?
Its IC50 is 1.5 µM.

What about the IC50 [17] of the same compound?
Its IC50 is 1.5 µM.

For `CCN1CCN(c2cc3c(cc2F)c(=O)c(-c2nnc4sc(-c5cn(C6CC6)c6cc(N7CCN(C)CC7)c(F)cc6c5=O)nn24)cn3C2CC2)CC1`, which IC50 [9] is on record?
Its IC50 is 2.5 µM.

What does the source list for `COc1cc(/C=N/NC(=O)c2cn3c4c(c(N5CCN(C)CC5)c(F)cc4c2=O)OC[C@@H]3C)cc(OC)c1OC`?
IC50 at 48 h [18]: 7.46 µM; IC50 [19]: 2.21 µM; IC50 [20]: 2.21 µM; IC50 [21]: 2.21 µM; IC50 [22]: 2.21 µM

For `CCn1cc(C(=O)O)c(=O)c2cnc(N3CCN(C(=O)CCSc4nnnn4-c4ccc(F)c(F)c4F)CC3)nc21`, which GI50 [23] is on record?
Its GI50 is 0.06 µM.

And the GI50 [24]?
The GI50 was 0.06 µM.

For `COc1cc(/C=N/n2c(-c3cn4c5c(c(N6CCN(C)CC6)c(F)cc5c3=O)OCC4C)nn(CN(C)C)c2=S)ccc1O` (stereo not drawn), which IC50 at 48 h [25] is on record?
The IC50 at 48 h was 0.14 µM.

And the IC50 [26]?
Its IC50 is 0.14 µM.

And the IC50 [27]?
The IC50 was 0.14 µM.

What does the source list for `CCn1cc(-c2nnc(SCc3nnc(-c4ccc(F)cc4)o3)[nH]2)c(=O)c2cc(F)c(N3CCN(C)CC3)cc21`?
IC50 [13]: 3.8 µM; IC50 [14]: 3.8 µM; IC50 [15]: 3.8 µM; IC50 [16]: 3.8 µM; IC50 [17]: 3.8 µM

With `CCn1cc(-c2nn(CNc3ccc(Cl)cc3)c(=S)o2)c(=O)c2cc(F)c(N3CCN(C)CC3)cc21` as the compound, how does the IC50 [15] read?
The IC50 was 45.4 µM.

What does the source list for `C[C@H]1COc2c(N3CCN(C)CC3)c(F)cc3c(=O)c(-c4nnc(S)o4)cn1c23`?
IC50 [2]: > 50 µM; IC50 [28]: > 50 µM; IC50 [11]: > 50 µM

Which results are given for `CCn1cc(C(=O)O)c(=O)c2cnc(N3CCN(C(=O)CCSc4nnnn4Cc4ccccc4)CC3)nc21`?
GI50 [23]: 0.06 µM; GI50 [24]: 0.06 µM

Which results are given for `O=C(O)c1cn(C2CC2)c2cc(N3CCN(C(=O)CCSc4nnnn4Cc4ccccc4)CC3)c(F)cc2c1=O`?
GI50 [23]: 0.06 µM; GI50 [24]: 0.06 µM

Which GI50 [29] does the source give for `COc1ncnc(NS(=O)(=O)c2ccc(/N=C3\C(=O)N(CN4CCN(c5c(F)cc6c(=O)c(C(=O)O)cn(C7CC7)c6c5OC)CC4C)c4ccc(Br)cc43)cc2)c1OC` (stereo not drawn) here?
The GI50 was less than 10 µM.

What about the GI50 [30] of the same compound?
The GI50 was less than 10 µM.

What about the GI50 [31] of the same compound?
The GI50 was less than 10 µM.

What about the GI50 [32] of the same compound?
Its GI50 is less than 10 µM.

And the GI50 [33]?
The GI50 was 0.176 µM.

Which IC50 [9] does the source give for `CCN1CCN(c2cc3c(cc2F)c(=O)c(-c2nnc4sc(-c5cn(C6CC6)c6cc(N7CCNCC7)c(F)cc6c5=O)nn24)cn3C2CC2)CC1` here?
Its IC50 is 0.2 µM.

What does the source list for `CC1COc2c(N3CCN(C)CC3)c(F)cc3c(=O)c(-c4nn(CN(C)C)c(=S)n4/N=C/c4ccccc4O)cn1c23` (stereo not drawn)?
IC50 at 48 h [25]: 0.14 µM; IC50 [26]: 0.14 µM; IC50 [27]: 0.14 µM

Which results are given for `CC1COc2c(N3CCN(C)CC3)c(F)cc3c(=O)c(-c4n[nH]c(=S)n4/N=C/c4ccccc4O)cn1c23` (stereo not drawn)?
IC50 at 48 h [25]: 10.5 µM; IC50 [26]: 10.5 µM; IC50 [27]: 10.5 µM

Which results are given for `COc1ccc(-c2csc3nc(-c4cn5c6c(c(N7CCN(C)CC7)c(F)cc6c4=O)OCC5C)nn23)cc1` (stereo not drawn)?
IC50 [34]: 26.7 µM; IC50 [35]: 26.7 µM; IC50 [36]: 26.7 µM; IC50 [37]: 26.7 µM; IC50 [38]: 26.7 µM

For `O=c1c(-c2n[nH]c3cc(-c4ccc(O)c(O)c4)nn23)cn(C2CC2)c2cc(N3CCNCC3)c(F)cc12`, which IC50 [39] is on record?
The IC50 was 0.14 µM.

Which results are given for `CCn1cc(C(=O)O)c(=O)c2cc(F)c(N3CCNCC3)cc21` [NORFLOXACIN]?
IC50 [1]: > 128 µM; IC50 [3]: 330 µM; IC50 [4]: > 128 µM; IC50 [5]: > 128 µM; IC50 [6]: > 128 µM; IC50 [8]: > 128 µM; IC50 [9]: > 150 µM; IC50 [10]: 330 µM; IC50 [12]: > 128 µM
